Tests used:
rat plasma [1] = experiment: Protein binding by Filter (50% rat plasma, Amicon micropartition system); assay type: in vitro ADME; conditions: 30 min, 37° C.
Protocol: One mL of rat plasma (50%) was mixed with [^123 I]I-TBZ in a test tube. After 30 min incubation at 37° C., 50 uL ×3 of liquid was removed as initial dose standard (I.D.); the rest was passed through an Amicon micropartition system (Amicon division, W. R. Grace, Danvers, Mass.) by centrifuging for 20 minutes (2,000 rpm) at 0° C. Four samples (50 uL each) were removed from the filtered solution and counted. The protein binding (% bound) was calculated by using the unit counts in filtrate divided by unit counts in ID.

[2] = Regional brain distribution in rats (dissection, iv injection); assay type: in vivo; conditions: rat, listed as I-TBZ peak B
Protocol: Regional brain distribution of [^123 I]I-TBZ (with either a racemic mixture, peak A or B) in rats was obtained after an iv injection. By dissecting, weighing and counting samples from different brain regions (cortex, striatum, hippocampus and cerebellum), % dose/gram of the samples was calculated by comparing the sample counts with the counts of the diluted initial dose. The ratio of uptake in each region was obtained by dividing % dose/gram of each region with that of the cerebellum. The effect of tetrahydrobenazine on the uptake of peak A or peak B was investigated by pretreating the rats with the TBZ 3 mg/rat at 3 min before iv injection of [^123 I]I-TBZ. At 20 min. post injection the rats were dissected and the regional brain dissection was carried out as above.

[3] = Biodistribution in rats (iv injection); assay type: in vivo; conditions: rat, iv
Protocol: While under ether anesthesia, each rat was injected in the femoral vein with 0.2 mL saline solution containing [^123 I]I-TBZ (1-5uCi) either racemic mixture, peak-A or peak-B. The rats were sacrificed at various time points postinjection by cardiac excision. The tissues were weighed and the radioactivity was measured with a Canberra gamma counter (Model 5000). The percent dose per organ was calculated by a comparison of the tissue counts to suitably diluted aliquots of the injected material. Total activities of blood and muscle were calculated assuming that they were 7% and 40% of total body weight, respectively Results are presented in Tables 3, 4A and 4B.

rat plasma [4] = experiment: Protein binding by TCA (10% rat plasma, 30 min, 37° C.); assay type: in vitro ADME; conditions: TCA precipitation
Protocol: One ml of 10% rat plasma was mixed with [^123 I]I-TBZ in a test tube and the mixture was incubated for 30 minutes at 37° C. To the mixture 0.4 mL of 10% trichloroacetic acid (TCA) was added. The test tube was centrifuged for 10 min. (4,000 rpm), and the top aqueous layer was removed to another test tube for counting The precipitate was washed with water (0.5 mL×2). The combined water and top aqueous layer was counted. The residual precipitate was also counted. The protein binding was obtained by dividing counts in precipitate with counts in aqueous layers.

[5] = normal and lesioned brain sections; cited from earlier work
[6] = tested on: monoamine transporter of chromaffin granules and CNS synaptic vesicles; conditions: cited from earlier work

SMILES: COc1cc2c(cc1OC)C1CC(O)(C=C[123I])C(CC(C)C)CN1CC2 (single isomer, unassigned) [Peak B]
- Protein binding, by Filter (rat plasma [1]): 83.7 ± 0.8 % bound
- Regional brain uptake, Rem ([2]; 5 min): 0.465 ± 0.070 % Dose/g
- Regional brain uptake, cerebellum ([2]; 5 min): 0.449 ± 0.067 % Dose/g
- Regional brain uptake, cortex ([2]; 5 min): 0.514 ± 0.066 % Dose/g
- Regional brain uptake, hippocampus ([2]; 5 min): 0.458 ± 0.074 % Dose/g
- Regional brain uptake, striatum ([2]; 5 min): 0.482 ± 0.066 % Dose/g
- Str./Cb (% dose/gram ratio) ([2]; 5 min): 1.07
- Regional brain uptake, Rem ([2]; 20 min): 0.172 ± 0.011 % Dose/g
- Regional brain uptake, cerebellum ([2]; 20 min): 0.162 ± 0.017 % Dose/g
- Regional brain uptake, cortex ([2]; 20 min): 0.183 ± 0.012 % Dose/g
- Regional brain uptake, hippocampus ([2]; 20 min): 0.189 ± 0.012 % Dose/g
- Regional brain uptake, striatum ([2]; 20 min): 0.189 ± 0.001 % Dose/g
- Str./Cb (% dose/gram ratio) ([2]; 20 min): 1.17
- Regional brain uptake, Rem ([2]; 60 min): 0.057 ± 0.006 % Dose/g
- Regional brain uptake, cerebellum ([2]; 60 min): 0.055 ± 0.005 % Dose/g
- Regional brain uptake, cortex ([2]; 60 min): 0.060 ± 0.007 % Dose/g
- Regional brain uptake, hippocampus ([2]; 60 min): 0.058 ± 0.009 % Dose/g
- Regional brain uptake, striatum ([2]; 60 min): 0.062 ± 0.002 % Dose/g
- Str./Cb (% dose/gram ratio) ([2]; 60 min): 1.13
- Regional brain uptake, Rem ([2]; 120 min): 0.027 ± 0.004 % Dose/g
- Regional brain uptake, cerebellum ([2]; 120 min): 0.027 ± 0.005 % Dose/g
- Regional brain uptake, cortex ([2]; 120 min): 0.028 ± 0.005 % Dose/g
- Regional brain uptake, hippocampus ([2]; 120 min): 0.027 ± 0.004 % Dose/g
- Regional brain uptake, striatum ([2]; 120 min): 0.027 ± 0.003 % Dose/g
- Str./Cb (% dose/gram ratio) ([2]; 120 min): 1.00
- Blood uptake (blood assumed 7% of body weight) ([3]; 5 min): 4.74 ± 0.36 % Dose/organ
- Br/Bl (% dose/gram ratio) ([3]; 5 min): 1.54 ± 0.16
- Brain uptake ([3]; 5 min): 0.74 ± 0.07 % Dose/organ
- Heart uptake ([3]; 5 min): 0.63 ± 0.03 % Dose/organ
- Kidney uptake ([3]; 5 min): 2.18 ± 0.34 % Dose/organ
- Liver uptake ([3]; 5 min): 22.61 ± 1.85 % Dose/organ
- Lung uptake ([3]; 5 min): 2.02 ± 0.22 % Dose/organ
- Muscle uptake (muscle assumed 40% of body weight) ([3]; 5 min): 21.12 ± 1.36 % Dose/organ
- Skin uptake ([3]; 5 min): 7.64 ± 3.09 % Dose/organ
- Spleen uptake ([3]; 5 min): 0.46 ± 0.03 % Dose/organ
- Thyroid uptake ([3]; 5 min): 0.07 ± 0.01 % Dose/organ
- Blood uptake (blood assumed 7% of body weight) ([3]; 20 min): 2.76 ± 0.42 % Dose/organ
- Br/Bl (% dose/gram ratio) ([3]; 20 min): 1.06 ± 0.22
- Brain uptake ([3]; 20 min): 0.27 ± 0.02 % Dose/organ
- Heart uptake ([3]; 20 min): 0.35 ± 0.02 % Dose/organ
- Kidney uptake ([3]; 20 min): 1.37 ± 0.11 % Dose/organ
- Liver uptake ([3]; 20 min): 17.25 ± 1.25 % Dose/organ
- Lung uptake ([3]; 20 min): 1.05 ± 0.04 % Dose/organ
- Muscle uptake (muscle assumed 40% of body weight) ([3]; 20 min): 19.78 ± 1.90 % Dose/organ
- Skin uptake ([3]; 20 min): 8.37 ± 1.15 % Dose/organ
- Spleen uptake ([3]; 20 min): 0.28 ± 0.03 % Dose/organ
- Thyroid uptake ([3]; 20 min): 0.05 ± 0.01 % Dose/organ
- Blood uptake (blood assumed 7% of body weight) ([3]; 60 min): 1.89 ± 0.13 % Dose/organ
- Br/Bl (% dose/gram ratio) ([3]; 60 min): 0.47 ± 0.05
- Brain uptake ([3]; 60 min): 0.087 ± 0.01 % Dose/organ
- Heart uptake ([3]; 60 min): 0.16 ± 0.01 % Dose/organ
- Kidney uptake ([3]; 60 min): 0.70 ± 0.06 % Dose/organ
- Liver uptake ([3]; 60 min): 8.36 ± 1.01 % Dose/organ
- Lung uptake ([3]; 60 min): 0.46 ± 0.03 % Dose/organ
- Muscle uptake (muscle assumed 40% of body weight) ([3]; 60 min): 11.80 ± 2.02 % Dose/organ
- Skin uptake ([3]; 60 min): 5.45 ± 0.64 % Dose/organ
- Spleen uptake ([3]; 60 min): 0.14 ± 0.03 % Dose/organ
- Thyroid uptake ([3]; 60 min): 0.13 ± 0.03 % Dose/organ
- Blood uptake (blood assumed 7% of body weight) ([3]; 120 min): 1.89 ± 0.34 % Dose/organ
- Br/Bl (% dose/gram ratio) ([3]; 120 min): 0.25 ± 0.03
- Brain uptake ([3]; 120 min): 0.042 ± 0.008 % Dose/organ
- Heart uptake ([3]; 120 min): 0.09 ± 0.02 % Dose/organ
- Kidney uptake ([3]; 120 min): 0.36 ± 0.09 % Dose/organ
- Liver uptake ([3]; 120 min): 4.35 ± 0.50 % Dose/organ
- Lung uptake ([3]; 120 min): 0.27 ± 0.08 % Dose/organ
- Muscle uptake (muscle assumed 40% of body weight) ([3]; 120 min): 5.72 ± 1.20 % Dose/organ
- Skin uptake ([3]; 120 min): 4.80 ± 0.46 % Dose/organ
- Spleen uptake ([3]; 120 min): 0.06 ± 0.01 % Dose/organ
- Thyroid uptake ([3]; 120 min): 0.47 ± 0.14 % Dose/organ
- Protein binding, by TCA (rat plasma [4]): 40.8 ± 0.6 % bound

SMILES: COc1cc2c(cc1OC)C1CC(O)C(CC(C)C)CN1CC2 (stereo not shown) [[^3 H]dihydro-TBZ, 2-hydroxy-3-(2-methylpropyl)-9,10-dimethoxy-1,3,4,6,7,11b-hexahydro-2H -benzo[a]quinolizine]
- Regional distribution of binding sites in brain sections (in words) [5]: corresponded to the monoamine cell bodies and nerve endings
- binding affinity for the transporter (in words) [6]: does not affect the binding affinity
- Kd ([6]; membranes of chromaffin granules and brain tissue samples, in vitro, read-out: binding affinity Kd): 2 to 9 nM

Source: patent US5278308A, “Iodine derivatives of tetrabenazine” (The Trustees of The University of Pennsylvania, priority 1992, dated 1994)
